One data set has as its target muscarinic receptors. In kind it is binding. The following applies: rat cortex, [3H]QNB; average of three determinations.
The next data set addresses T1, DA-1 receptors (Rattus norvegicus, UniProt P18901).
T1 construct: striatum for DA-1 and DA-2 receptors; from tissue; host or cells: rat striatum membranes
Description: [3H]SCH 23390 binding to DA-1 receptors (rat striatum). The following applies: for Ki: [3H]SCH 23390, average ± standard error, read-out: D1 affinity Ki.

For a further data set, the system named is catalepsy in rats. The following applies: male, Wistar, rat, in vivo, sc.
The next data set has as its target T2, DA-3 receptors (Rattus norvegicus, UniProt P19020).
T2 construct: olfactory tubercle for DA-3 receptors; from tissue; host or cells: rat olfactory tubercle membranes
The data set is described as follows: [3H]-7-OH-DPAT binding to DA-3 receptors (rat olfactory tubercle). The following applies: for Ki: [3H]-7-OH-DPAT, average ± standard error.

The target of the next data set is T3, DA-2 receptors (Rattus norvegicus, UniProt P61169).
T3 construct: striatum for DA-1 and DA-2 receptors; from tissue; host or cells: rat striatum membranes
T3 sequence (P61169 whole entry): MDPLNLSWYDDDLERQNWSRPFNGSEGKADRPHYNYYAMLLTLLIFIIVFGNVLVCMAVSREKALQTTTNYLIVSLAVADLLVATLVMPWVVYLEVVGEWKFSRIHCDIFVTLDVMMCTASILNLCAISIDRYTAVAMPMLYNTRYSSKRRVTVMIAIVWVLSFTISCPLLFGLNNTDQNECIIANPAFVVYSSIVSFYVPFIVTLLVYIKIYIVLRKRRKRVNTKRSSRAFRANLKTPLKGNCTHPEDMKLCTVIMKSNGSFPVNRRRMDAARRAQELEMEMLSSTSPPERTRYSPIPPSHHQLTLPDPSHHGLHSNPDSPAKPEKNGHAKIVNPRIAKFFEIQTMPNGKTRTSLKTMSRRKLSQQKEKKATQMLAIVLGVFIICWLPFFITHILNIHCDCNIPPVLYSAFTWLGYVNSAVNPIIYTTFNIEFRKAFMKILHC
Description: [3H]Spiperone binding to DA-2 receptors (rat striatum). The following applies: stereoselectivity between enantiomers.

Data set [1] concerns 5-MeO-DMT-induced head twitches in mouse. The data set is described as follows: Antagonism of 5-MeO-DMT-induced head twitches in mouse. The data set is classed as in vivo. The following applies: s.c., 30 min before 5-MeO-DMT 10 mg/Kg s.c.

7 compounds from patent US6391870B2, “Pyrrolo [2,1-b][1,3]benzothiazepines with atypical antipsychotic activity” (Sigma-Tau Industrie Farmaceutiche Riunite S.p.A., priority 1998, dated 2002) can be followed below.

SMILES strings stand for the structures. Like-named read-outs stand apart in the source and are kept apart here.

T2 sequence (P19020 whole entry): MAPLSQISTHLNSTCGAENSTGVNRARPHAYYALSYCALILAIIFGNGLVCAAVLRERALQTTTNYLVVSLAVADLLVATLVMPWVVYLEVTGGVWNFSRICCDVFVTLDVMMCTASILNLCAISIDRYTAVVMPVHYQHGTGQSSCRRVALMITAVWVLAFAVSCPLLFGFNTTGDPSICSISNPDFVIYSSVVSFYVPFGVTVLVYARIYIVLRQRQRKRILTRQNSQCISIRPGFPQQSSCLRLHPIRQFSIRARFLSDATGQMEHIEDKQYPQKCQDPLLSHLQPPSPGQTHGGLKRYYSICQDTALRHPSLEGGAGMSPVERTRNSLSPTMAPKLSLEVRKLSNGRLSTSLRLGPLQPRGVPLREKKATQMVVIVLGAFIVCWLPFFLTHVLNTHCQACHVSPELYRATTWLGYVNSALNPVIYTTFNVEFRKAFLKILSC
T1 sequence (P18901 whole entry): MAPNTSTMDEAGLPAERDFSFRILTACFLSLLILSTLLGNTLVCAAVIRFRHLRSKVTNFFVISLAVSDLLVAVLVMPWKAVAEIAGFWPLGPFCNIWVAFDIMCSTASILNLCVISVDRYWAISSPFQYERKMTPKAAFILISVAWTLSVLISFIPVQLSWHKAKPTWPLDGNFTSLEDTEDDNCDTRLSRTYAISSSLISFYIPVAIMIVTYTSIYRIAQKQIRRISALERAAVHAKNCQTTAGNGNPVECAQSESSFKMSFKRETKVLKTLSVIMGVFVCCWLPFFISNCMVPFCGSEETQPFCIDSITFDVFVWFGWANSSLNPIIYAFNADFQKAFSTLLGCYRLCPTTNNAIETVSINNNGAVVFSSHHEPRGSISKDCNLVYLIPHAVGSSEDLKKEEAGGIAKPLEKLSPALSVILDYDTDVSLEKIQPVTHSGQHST

For `CN1CCN(C2Cn3cccc3Sc3ccc(Cl)cc32)CC1` (single isomer, unassigned; (+)) [ST1460, (+)-7-chloro-9-(4-methylpiperazin-1-yl)-9,10-dihydropyrrolo[2,1-b][1,3]benzothiazepine], affinity on muscarinic receptors was put at a Ki of 0.286 µM.
Consider `CN1CCN(C2Cc3ccccc3Sc3ccc(Cl)cc32)CC1` (centres unmarked) [RS-Octoclothepin, 8-chloro-10-(4-methylpiperazino)-10,11-dihydrodibenzo[b,f]thiepin], for which the figures for the Ki at muscarinic receptors, on DA-1 receptors and on DA-3 receptors (read-out: D3 affinity Ki) were 0.434 µM, 0.00228 ± 0.00015 µM and 0.00238 µM, respectively. For the same compound, the “D1 pKi” value at DA-1 receptors is on record as 8.64. Moreover, the “Time in minutes of insurgence of catalepsy in 100% of the animals” value (from here on “Time in minutes … in 100% of the animals”) in the data set with catalepsy in rats came out at 120 min. In addition, the “D3 pKi” value at DA-3 receptors came out at 8.62.
For the compound `CN1CCN(C2Cn3cccc3Sc3ccc(Cl)cc32)CC1` (racemic) [ST1455, (±)-7-chloro-9-(4-methylpiperazin-1-yl)-9,10-dihydropyrrolo[2,1-b][1,3]benzothiazepine], the Ki on muscarinic receptors stood at 0.418 µM.
Take `CN1CCN([C@H]2Cc3ccccc3Sc3ccc(Cl)cc32)CC1` [S-(+)-Octoclothepin]: the inhibition constant Ki at muscarinic receptors was determined as 0.749 µM; on DA-1 receptors, 0.00197 ± 0.00053 µM; on DA-3 receptors (D3 affinity Ki), 0.00075 µM. Besides, the “D1 pKi” value on DA-1 receptors is given as 8.71. In addition, the “Time in minutes … in 100% of the animals” value in the data set with catalepsy in rats was 300 min.
On to `CN1CCN(C2Cn3cccc3Sc3ccc(Cl)cc32)CC1` (single isomer, unassigned) [ST1461], for which the inhibitory constant (Ki) on muscarinic receptors was found to be 0.514 µM.
Still for that read-out and setting: to `CN1CCN(C2Cn3cccc3Sc3ccc(F)cc32)CC1` (racemic) [ST1456, (±)-7-fluoro-9-(4-methylpiperazin-1-yl)-9,10-dihydropyrrolo[2,1-b][1,3]benzothiazepine] belongs 2.22 µM.
Consider `CN1CCN([C@@H]2Cc3ccccc3Sc3ccc(Cl)cc32)CC1` [R-(−)-Octoclothepin], for which the Ki is 0.155 µM at muscarinic receptors, 0.00202 ± 0.00017 µM at DA-1 receptors and 0.0209 µM at DA-3 receptors (read-out: D3 affinity Ki). Moreover, at DA-1 receptors, the “D1 pKi” value is given as 8.69. In addition, in the data set on catalepsy in rats, the “Time in minutes … in 100% of the animals” value stood at 120 min. In addition, the “Times less affinity for the D2 receptor than the opposite enantiomer” value at DA-2 receptors was “approximately 10 times”. Also, in data set [1], the “Dosage that determines 50% of the Head-twitching inhibition induced by 5-MeO-DMT” value amounted to 0.089 mg/kg. The “D3 pKi” value at DA-3 receptors is recorded as 7.68.

In general, Ki refers to a dissociation constant, usually derived from enzyme kinetics or from competition with a known ligand.
